Results as given in patent publication US10479780B2, “Aminopyrazole derivatives” (Chugai Seiyaku Kabushiki Kaisha, priority 2015, dated 2019).
Where two headings read alike, the source gives them in different places.

Columns and labels:
Format in all cases: biochemical
human Yes1 enzyme = molecular target: T1, human Yes1 enzyme (Homo sapiens, UniProt P07947); assay: Yes1 enzyme inhibitory activity (time-resolved fluorometry, biotinylated peptide phosphorylation); conditions: read-out: YES_IC50
T1 construct: made in house
T1 sequence (P07947 whole entry): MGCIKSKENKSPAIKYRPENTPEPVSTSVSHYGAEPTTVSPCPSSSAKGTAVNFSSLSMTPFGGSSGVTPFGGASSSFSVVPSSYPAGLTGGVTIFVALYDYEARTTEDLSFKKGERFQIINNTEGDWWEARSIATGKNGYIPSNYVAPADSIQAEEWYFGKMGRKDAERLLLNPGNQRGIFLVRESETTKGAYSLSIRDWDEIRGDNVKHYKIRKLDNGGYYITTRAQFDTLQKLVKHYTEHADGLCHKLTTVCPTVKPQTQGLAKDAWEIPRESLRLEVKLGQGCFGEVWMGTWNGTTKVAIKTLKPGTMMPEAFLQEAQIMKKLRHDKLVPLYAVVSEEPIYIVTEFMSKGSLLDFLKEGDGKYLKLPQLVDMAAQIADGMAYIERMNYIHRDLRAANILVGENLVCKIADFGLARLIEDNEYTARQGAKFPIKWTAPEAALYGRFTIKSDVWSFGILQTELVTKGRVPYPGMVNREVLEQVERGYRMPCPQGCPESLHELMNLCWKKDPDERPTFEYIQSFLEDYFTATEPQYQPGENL
Outline: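 Inhibition was expressed against a compound-free control to give IC50, using TR-FRET read-out (Eu-cryptate anti-pTyr antibody, streptavidin-XL665).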

human Src enzyme = molecular target: T2, human Src enzyme (Homo sapiens, UniProt P12931); assay: Src enzyme inhibitory activity (time-resolved fluorometry, biotinylated peptide phosphorylation); conditions: read-out: SRC_IC50
T2 construct: purchased Carna Biosciences, Inc. 08-173
T2 sequence (P12931 whole entry): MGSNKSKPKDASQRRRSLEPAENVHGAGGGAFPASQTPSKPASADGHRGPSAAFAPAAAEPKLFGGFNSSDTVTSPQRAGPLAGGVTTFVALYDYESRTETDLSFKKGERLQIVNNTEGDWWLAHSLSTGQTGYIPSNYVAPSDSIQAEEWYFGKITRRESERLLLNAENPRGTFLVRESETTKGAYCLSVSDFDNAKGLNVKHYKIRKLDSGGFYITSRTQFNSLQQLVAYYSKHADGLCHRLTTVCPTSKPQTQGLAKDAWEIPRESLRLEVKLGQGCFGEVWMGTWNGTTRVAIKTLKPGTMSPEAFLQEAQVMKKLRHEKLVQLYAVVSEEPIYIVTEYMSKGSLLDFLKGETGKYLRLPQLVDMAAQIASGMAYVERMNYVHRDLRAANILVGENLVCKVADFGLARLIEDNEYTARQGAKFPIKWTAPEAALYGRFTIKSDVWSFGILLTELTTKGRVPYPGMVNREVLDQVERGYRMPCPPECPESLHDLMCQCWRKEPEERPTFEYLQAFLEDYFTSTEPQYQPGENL
Outline: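 Compounds were tested for blocking tyrosine phosphorylation of a biotinylated peptide substrate by recombinant human Src. Phosphorylated product was quantified by time-resolved fluorometry using europium cryptate and XL665 conjugates, and IC50 was calculated against the compound-free control.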

human Lck enzyme = molecular target: T3, human Lck enzyme (Homo sapiens, UniProt P06239); assay: Lck enzyme inhibitory activity (time-resolved fluorometry, biotinylated peptide phosphorylation); conditions: read-out: LCK_IC50
T3 construct: purchased Carna Biosciences, Inc. 08-170
T3 sequence (P06239 whole entry): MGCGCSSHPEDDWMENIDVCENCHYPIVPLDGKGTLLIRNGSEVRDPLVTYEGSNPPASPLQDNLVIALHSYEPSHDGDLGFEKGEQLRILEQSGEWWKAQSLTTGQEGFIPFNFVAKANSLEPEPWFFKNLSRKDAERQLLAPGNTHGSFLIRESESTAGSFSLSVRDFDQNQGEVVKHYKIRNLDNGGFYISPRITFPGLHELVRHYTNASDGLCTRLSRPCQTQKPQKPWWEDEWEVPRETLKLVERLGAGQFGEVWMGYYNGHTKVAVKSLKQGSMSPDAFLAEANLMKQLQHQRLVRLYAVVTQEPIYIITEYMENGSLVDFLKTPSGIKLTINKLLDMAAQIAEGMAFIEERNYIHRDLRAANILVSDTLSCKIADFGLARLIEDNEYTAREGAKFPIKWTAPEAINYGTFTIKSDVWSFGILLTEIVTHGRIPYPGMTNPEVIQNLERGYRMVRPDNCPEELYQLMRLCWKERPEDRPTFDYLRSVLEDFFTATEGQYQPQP
Outline: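 Readout pairs a europium cryptate-labelled anti-phosphotyrosine antibody with XL665-streptavidin, measured by time-resolved fluorescence. IC50 derived from percent inhibition against untreated controls.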

[1] = biotinylated peptide phosphorylation

SMILES | IC50 (human Yes1 enzyme; [1]) | IC50 (human Src enzyme; [1]) | IC50 (human Lck enzyme; [1]) | IC50 (human Yes1 enzyme) | IC50 (human Src enzyme) | IC50 (human Lck enzyme)
Cc1cc(Oc2ccccc2F)ccc1-n1ncc(C(=O)c2cc3cc(F)c(NS(=O)(=O)C4(CC(O)CO)CC4)cc3[nH]2)c1N (stereo not drawn) [Example 4-8-001, N-{2-{5-amino-1-[4-(2-fluorophenoxy)-2-methylphenyl]pyrazole-4-carbonyl}-5-fluoro-1H-indol-6-yl}-1-(2,3-dihydroxypropyl)cyclopropane-1-sulfonamide] | 1.1 nM | 31 nM | 14 nM | – | – | –
Cc1cc(Oc2ccccc2)cc(F)c1-n1ncc(C(=O)c2cc3cc(F)c(NS(C)(=O)=O)cc3[nH]2)c1N [Example 4-7-013, N-[2-[5-amino-1-(2-fluoro-6-methyl-4-phenoxyphenyl)pyrazole-4-carbonyl]-5-fluoro-1H-indol-6-yl]methanesulfonamide] | 3 nM | 58 nM | 26 nM | – | – | –
Cc1cc2cc(C(=O)c3cnn(-c4cnc(Oc5ccccc5F)cc4C)c3N)[nH]c2cc1N1CCC(N2CCOCC2)CC1 [Example 5-1-078, [5-amino-1-[6-(2-fluorophenoxy)-4-methylpyridin-3-yl]pyrazol-4-yl]-[5-methyl-6-(4-morpholin-4-ylpiperidin-1-yl)-1H-indol-2-yl]methanone] | – | – | – | 0.28 nM | 10 nM | 2.4 nM
Cc1cc2cc(C(=O)c3cnn(-c4ccc(Oc5cccc(F)c5F)cc4C)c3N)[nH]c2cc1N1CCCS1(=O)=O [Example 4-2-113, [5-amino-1-[4-(2,3-difluorophenoxy)-2-methylphenyl]pyrazol-4-yl]-[6-(1,1-dioxo-1,2-thiazolidin-2-yl)-5-methyl-1H-indol-2-yl]methanone] | 0.63 nM | 18 nM | 7.1 nM | – | – | –
Cc1cc(Oc2c(F)cccc2Cl)ncc1-n1ncc(C(=O)c2cc3cc(F)c(NS(C)(=O)=O)cc3[nH]2)c1N [Example 4-2-035, N-[2-[5-amino-1-[6-(2-chloro-6-fluorophenoxy)-4-methylpyridin-3-yl]pyrazole-4-carbonyl]-5-fluoro-1H-indol-6-yl]methanesulfonamide] | 1.3 nM | 59 nM | 6.7 nM | – | – | –
Cc1cc(Oc2c(F)cccc2F)ncc1-n1ncc(C(=O)c2cc3cc(F)c(NS(=O)(=O)c4cccc(C#N)c4)cc3[nH]2)c1N [Example 5-1-492, N-[2-[5-amino-1-[6-(2,6-difluorophenoxy)-4-methylpyridin-3-yl]pyrazole-4-carbonyl]-5-fluoro-1H-indol-6-yl]-3-cyanobenzenesulfonamide] | 8 nM | 760 nM | 150 nM | – | – | –
Cc1cc2cc(C(=O)c3cnn(-c4cnc(Oc5ccccc5F)cc4C)c3N)[nH]c2cc1NS(=O)(=O)c1ccccn1 [Example 5-1-477, N-[2-[5-amino-1-[6-(2-fluorophenoxy)-4-methylpyridin-3-yl]pyrazole-4-carbonyl]-5-methyl-1H-indol-6-yl]pyridine-2-sulfonamide] | 5.2 nM | 250 nM | 48 nM | – | – | –
COc1cc2cc(C(=O)c3cnn(-c4ccc(Oc5ccccc5F)cc4C)c3N)[nH]c2cc1NS(=O)(=O)CC(=O)N1CCCC1 [Example 5-1-122, N-[2-[5-amino-1-[4-(2-fluorophenoxy)-2-methylphenyl]pyrazole-4-carbonyl]-5-methoxy-1H-indol-6-yl]-2-oxo-2-pyrrolidin-1-ylethanesulfonamide] | – | – | – | 0.39 nM | 30 nM | 4.6 nM
Cc1cc(Oc2c(F)cccc2F)ncc1-n1ncc(C(=O)c2cc3cc(C4CC4)c(NS(=O)(=O)CCCF)cc3[nH]2)c1N [Example 5-1-427, N-[2-[5-amino-1-[6-(2,6-difluorophenoxy)-4-methylpyridin-3-yl]pyrazole-4-carbonyl]-5-cyclopropyl-1H-indol-6-yl]-3-fluoropropane-1-sulfonamide] | 3.8 nM | 170 nM | 43 nM | – | – | –
Cc1cc(Oc2c(F)cccc2F)ncc1-n1ncc(C(=O)c2cc3cc(OC4CCN(C(C)C)CC4)c(N4C(=O)NC(C)(C)C4=O)cc3[nH]2)c1N [Example 5-1-188, 3-[2-[5-amino-1-[6-(2,6-difluorophenoxy)-4-methylpyridin-3-yl]pyrazole-4-carbonyl]-5-(1-propan-2-ylpiperidin-4-yl)oxy-1H-indol-6-yl]-5,5-dimethylimidazolidine-2,4-dione] | – | – | – | 0.3 nM | 4.6 nM | 1.2 nM
COc1cc2cc(C(=O)c3cnn(-c4cnc(Oc5ccccc5F)cc4C)c3N)[nH]c2cc1NS(=O)(=O)N1CCOCC1 [Example 4-12-001, N-{2-{5-amino-1-[6-(2-fluorophenoxy)-4-methylpyridin-3-yl]pyrazole-4-carbonyl}-5-methoxy-1H-indol-6-yl}morpholine-4-sulfonamide] | 2.9 nM | 140 nM | 45 nM | – | – | –
Cc1cc(Oc2c(F)cccc2F)ncc1-n1ncc(C(=O)c2cc3cc(OC(F)F)c(NC4CN(S(C)(=O)=O)C4)cc3[nH]2)c1N [Example 5-1-079, [5-amino-1-[6-(2,6-difluorophenoxy)-4-methylpyridin-3-yl]pyrazol-4-yl]-[5-(difluoromethoxy)-6-[(1-methylsulfonylazetidin-3-yl)amino]-1H-indol-2-yl]methanone] | – | – | – | 1 nM | 20 nM | 3.8 nM
Cc1cc(Oc2ccccc2F)cc(F)c1-n1ncc(C(=O)c2cc3cc(OC(F)F)c(N4CCN(S(C)(=O)=O)CC4)cc3[nH]2)c1N [Example 4-23-003, [5-amino-1-[2-fluoro-4-(2-fluorophenoxy)-6-methylphenyl]pyrazol-4-yl]-[5-(difluoromethoxy)-6-(4-methylsulfonylpiperazin-1-yl)-1H-indol-2-yl]methanone] | 10 nM | 62 nM | 21 nM | – | – | –
Cc1cc(Oc2ccc(F)cc2)ncc1-n1ncc(C(=O)c2cc3cc(F)c(NS(=O)(=O)C4CC4)cc3[nH]2)c1N [Example 5-1-046, N-[2-[5-amino-1-[6-(4-fluorophenoxy)-4-methylpyridin-3-yl]pyrazole-4-carbonyl]-5-fluoro-1H-indol-6-yl]cyclopropanesulfonamide] | – | – | – | 7.9 nM | 160 nM | 110 nM
Cc1cc(Oc2cccc(F)c2F)ncc1-n1ncc(C(=O)c2cc3cc(NS(C)(=O)=O)c(F)cc3[nH]2)c1N [Example 5-1-049, N-[2-[5-amino-1-[6-(2,3-difluorophenoxy)-4-methylpyridin-3-yl]pyrazole-4-carbonyl]-6-fluoro-1H-indol-5-yl]methanesulfonamide] | – | – | – | 1.5 nM | 70 nM | 3.9 nM
Cc1cc(Oc2c(F)cccc2F)ncc1-n1ncc(C(=O)c2cc3cc(C(C)C)c(NS(=O)(=O)CCCF)cc3[nH]2)c1N [Example 5-1-305, N-[2-[5-amino-1-[6-(2,6-difluorophenoxy)-4-methylpyridin-3-yl]pyrazole-4-carbonyl]-5-propan-2-yl-1H-indol-6-yl]-3-fluoropropane-1-sulfonamide] | – | – | – | 9.8 nM | 380 nM | 84 nM
Cc1cc(-n2ncc(C(=O)c3cc4cc(OC5CCN(C(C)C)CC5)c(-c5cccs5)cc4[nH]3)c2N)ccc1Oc1ccccc1F [Example 5-1-238, [5-amino-1-[4-(2-fluorophenoxy)-3-methylphenyl]pyrazol-4-yl]-[5-(1-propan-2-ylpiperidin-4-yl)oxy-6-thiophen-2-yl-1H-indol-2-yl]methanone] | – | – | – | 8.1 nM | 860 nM | 340 nM
Cc1cc2cc(C(=O)c3cnn(-c4ccc(Oc5ccccc5F)cc4C)c3N)[nH]c2cc1N1C(=O)NC2(COC2)C1=O [Example 5-1-410, 7-[2-[5-amino-1-[4-(2-fluorophenoxy)-2-methylphenyl]pyrazole-4-carbonyl]-5-methyl-1H-indol-6-yl]-2-oxa-5,7-diazaspiro[3.4] octane-6,8-dione] | 0.56 nM | 22 nM | 2.9 nM | – | – | –
Cc1cc(-n2ncc(C(=O)c3cc4cc(OC5CCN(C(C)C)CC5)c(C5CCN(S(C)(=O)=O)CC5)cc4[nH]3)c2N)ccc1Oc1ccccc1F [Example 5-1-230, [5-amino-1-[4-(2-fluorophenoxy)-3-methylphenyl]pyrazol-4-yl]-[6-(1-methylsulfonylpiperidin-4-yl)-5-(1-propan-2-ylpiperidin-4-yl)oxy-1H-indol-2-yl]methanone] | – | – | – | 0.68 nM | 95 nM | 7 nM
Cc1cc2cc(C(=O)c3cnn(-c4cnc(Oc5ccccc5F)cc4C)c3N)[nH]c2cc1NS(C)(=O)=O [Example 4-2-061, N-(2-(5-Amino-1-(6-(2-fluorophenoxy)-4-methylpyridin-3-yl)-1H-pyrazole-4-carbonyl)-5-methyl-1H-indol-6-yl)methanesulfonamide] | 0.52 nM | 31 nM | 6.5 nM | – | – | –
Cc1cc(Oc2ccccc2F)ccc1-n1ncc(C(=O)c2cc3cc(N4CCOCC4)c(N4C(=O)C(C)(C)NC4=S)cc3[nH]2)c1N [Example 5-1-120, 3-[2-[5-amino-1-[4-(2-fluorophenoxy)-2-methylphenyl]pyrazole-4-carbonyl]-5-morpholin-4-yl-1H-indol-6-yl]-5,5-dimethyl-2-sulfanylideneimidazolidin-4-one] | – | – | – | 0.43 nM | 23 nM | 6.1 nM
Cc1cc2cc(C(=O)c3cnn(-c4ccc(Oc5ccccc5F)cc4C)c3N)[nH]c2cc1NS(=O)(=O)CC(=O)NC(C)C [Example 4-10-008, 2-[[2-[5-amino-1-[4-(2-fluorophenoxy)-2-methylphenyl]pyrazole-4-carbonyl]-5-methyl-1H-indol-6-yl]sulfamoyl]-N-propan-2-ylacetamide] | 2 nM | 54 nM | 9.6 nM | – | – | –
